In EP2012793B1, “USE OF A TRICYCLIC COMPOUND FOR PREPARING A MEDICAMENT FOR TREATING SKELETAL MUSCLE DEGENERATION OF GENETIC ORIGIN” (Association Française contre les Myopathies, priority 2006, dated 2007):
Where a name gives a salt, the structure may show the parent alone.

Assays:
[1] = test system: souche de nématode dépourvue de dystrophine; test: Test on dystrophin-deficient nematode strain (model of degenerative myopathy): paralysis phenotype and cytological count of degenerating muscle cells; type: in vivo, Caenorhabditis elegans; settings: for Diminution de la dégénérescence en %: untreated = 0; for Pourcentage d'animaux paralysés à J7: untreated = 100
Method: Les composés ont été testés sur une souche de nématode dépourvue de dystrophine (Gieseler et al., Current Biology, 2000, vol. 10, p1092-1097) et (Ségalat, Neuromuscular Disorders, 2002, Suppl: S105-9). Cette souche est utilisée comme modèle de myopathie dégénérative. Dans cette souche, jusqu'à 30% des cellules musculaires servant à la locomotion (muscles longitudinaux) dégénèrent à l'état adulte (7 jours à 15°C), ce qui se traduit par une paralysie progressive des animaux.
Les composés sont administrés par mélange avec la gélose sur laquelle sont cultivés les animaux. Ils pénètrent par diffusion à travers la cuticule des animaux.
L'effet des composés sur la dégénérescence musculaire est évalué par 1) l'observation du phénotype des animaux (paralysie), et 2) par l'examen cytologique de la. dégénérescence musculaire au moyen de marqueurs musculaires : rodamine-phalloidine et anticorps anti-myosine. Cet examen permet de compter le nombre de cellules musculaires en dégénérescence ou mortes (Gieseler et al. , 2000, supra).

[2] = test system: souris mdx (génotype C57/BL6 mdx5cv); settings: treated from 2 to 6 weeks of age
Text: (§1) Les tests effectués chez la souris sont de plusieurs types : histologiques, fonctionnels sur l'animal entier, et fonctionnels sur muscles disséqués. Les tests sont effectués sur la souris mdx (génotype C57/BL6 mdx5cv), modèle murin de myopathie dégénérative. Ces tests sont notamment détaillés dans les publications suivantes auxquelles on pourra se référer : • De Luca A, et al. Am. J. Pathol. 2005; 166(2), 477-89. • Divet A, etal. Pflugers Arch. 2002 Aug; 444(5), 634-43. Epub 2002 Jul 10. • Rafael JA, et al. Mamm Genome. 2000 Sep; 11(9), 725-8.
(§2) Les composés sont administrés oralement aux souris dans leur nourriture. Les souris sont traitées de l'âge de 2 semaines à 6 semaines. Elles sont testées à 6 semaines.

[3] = test system: souris mdx (génotype C57/BL6 mdx5cv); test: mdx mouse, histological tests (fibre size dispersion, diaphragm degeneration/necrosis, centronucleated fibres); type: in vivo
Text: as §1, §2

[4] = test system: protéolyse du muscle de C. elegans; test: C. elegans muscle proteolysis model representative of cachexia (protocol of Zdinak et al.); type: in vivo; settings: remaining proteolysis relative to control; strongly reduced
[5] = 0,1 mg/ml in culture agar (0,2-0,3 mM), after 7 days of culture at 15°C
[6] = concentration efficace 0,1 mg/ml in culture agar

For CN(C)CC/C=C1/c2ccccc2Sc2ccc(Cl)cc21 [Chloroprothixene, chlorprothixene], the “Diminution de la dégénérescence en %” value ([1]; concentration efficace 0,02 mg/ml in culture agar) was 58%.

In the case of CN(C)CCC=C1c2ccccc2C=Cc2ccccc21 [Cyclobenzaprine, cyclobenzaprine], the “Augmentation de la force exercée dans test d'agrippement” value ([2]; 3mg/jour/kg oral in food) is reported as 24%, the “Augmentation du score le test d'agrippement” value ([2]; 3mg/jour/kg oral in food) is reported as 40% and the “Diminution de la dégénérescence en %” value ([1]; concentration efficace 0,05 mg/ml in culture agar) is reported as 63%. The “Réduction de l'indice de dégénérescence du diaphragme (fibres nécrotiques et fibres centronucléées)” value ([3]; 3mg/jour/kg oral in food, treated from 2 to 6 weeks of age) was 21% and the “Réduction de la dispersion de taille des fibres (marqueur de dégénérescence)” value ([3]; 3mg/jour/kg oral in food, treated from 2 to 6 weeks of age, versus untreated animals) was 52%.

With CNCCCN1c2ccccc2CCc2ccccc21 [Desipramine chlorhydrate, désipramine] the “Diminution de la dégénérescence en %” value [1, 5] was 58% and the “Pourcentage d'animaux paralysés à J7” value [1, 5] was 58%.

In the case of CN(C)CCCN1c2ccccc2CCc2ccccc21 [Imipramine chlorhydrate, imipramine], the “Augmentation de la tension développée par le muscle EDL sur animaux vivants” value ([2]; 40mg/jour/kg oral in food) is reported as 20%, the “Augmentation du score avec le test d'agrippement” value ([2]; 40mg/jour/kg oral in food) is reported as 48% and the “Augmentation de la tension maximale développée par le muscle isolé” value ([2]; 40mg/jour/kg oral in food, triton-skinned fibre protocol) is reported as 50%. The “Diminution de la dégénérescence en %” value [1, 5] was 37%, the “Pourcentage d'animaux paralysés à J7” value [1, 5] was 65% and the protéolyse [4] was 20 % de la protéolyse du témoin.

With COc1ccc2c(c1)N(C[C@H](C)CN(C)C)c1ccccc1S2 [Methotrimeprazine, méthotriméprazine] the “Diminution de la dégénérescence en %” value [1, 6] was 70%.

In the case of CC(CN(C)C)CN1c2ccccc2Sc2ccccc21 (stereo not shown) [Trimeprazine, triméprazine], the “Diminution de la dégénérescence en %” value [1, 6] is reported as 65%.

For CC(CN(C)C)CN1c2ccccc2CCc2ccccc21 (stereo not shown) [Trimipramine maleate, trimipramine], the nécrose du diaphragme ([3]; 15 mg/kg/jour, test of Raymackers et al., p<5%) was “réduit la nécrose du diaphragme” and the “nombre de fibres centronucléées” value ([3]; 15 mg/kg/jour, test of Shavlakadze et al., p<0,1%) was “réduit”.

For NCCc1c[nH]c2ccc(O)cc12 [sérotonine], the dégénérescence musculaire ([1]; result in words, concentration not given) was “diminue également la dégénérescence musculaire”.
